Test results taken from patent publication US20130096170A1 (priority 2011, published 2013).
Read-outs that look alike come from different tables or passages of the source.

Legend:
[1] = tested on: neonates ≥28 to ≤44 weeks gestational age
clinical [2] = conditions: human, in vivo
clinical [3] = conditions: human, plasma, intravenous
[4] = cited from earlier work
[5] = age Group I, dose level 2 (Dex 0.1), N = 6
[6] = Dose Level 1, LD 0.25/CD 0.2 μg/kg/hr, full evaluable population
[7] = Dose Level 2, LD 0.50/CD 0.4 μg/kg/hr, full evaluable population
[8] = Dose Level 3, LD 1.00/CD 0.7 μg/kg/hr, full evaluable population
[9] = Dose Level 4, LD 1.00/CD 2.00 μg/kg/hr, full evaluable population
[10] = Table 30 key summary (mean), Dose Level 1, LD 0.25/CD 0.2 μg/kg/hr, full evaluable population
[11] = Table 30 key summary (mean), Dose Level 2, LD 0.50/CD 0.4 μg/kg/hr, full evaluable population
[12] = Table 30 key summary (mean), Dose Level 3, LD 1.00/CD 0.7 μg/kg/hr, full evaluable population
[13] = Table 30 key summary (mean), Dose Level 4, LD 1.00/CD 2.00 μg/kg/hr, full evaluable population
[14] = Su et al. model, subject 7.7 months, 7 kg, total bypass time 57 minutes
[15] = noncompartmental analysis of the adult long-term use data
[16] = population PK of 4 pooled pediatric intensive care studies (1 week to 14 years)
[17] = typical subject, adult population PK analysis of long-term (>24 h) use

For `Cc1cccc([C@H](C)c2cnc[nH]2)c1C` [dexmedetomidine], the “TEAE: Anger, subjects” value [1, 5] was 1 (16.7%), the “TEAE: Blood bilirubin unconjugated increased, subjects” value [1, 5] was 1 (16.7%) and the “TEAE: Bradycardia, subjects” value [1, 5] was 1 (16.7%). The “TEAE: Cardiac disorders, subjects” value [1, 5] was 1 (16.7%), the “TEAE: Cardio-respiratory arrest, subjects” value [1, 5] was 1 (16.7%) and the “TEAE: General disorders and administration site conditions, subjects” value [1, 5] was 2 (33.3%). For the same molecule, the “TEAE: Haematuria, subjects” value [1, 5] was 1 (16.7%), the “TEAE: Hepatobiliary disorders, subjects” value [1, 5] was 1 (16.7%) and the “TEAE: Hyperbilirubinaemia, subjects” value [1, 5] was 1 (16.7%). The “TEAE: Hyperglycaemia, subjects” value [1, 5] was 1 (16.7%), the “TEAE: Hypocalcaemia, subjects” value [1, 5] was 1 (16.7%) and the “TEAE: Hypoproteinaemia, subjects” value [1, 5] was 1 (16.7%). For the same molecule, the “TEAE: Infections and infestations, subjects” value [1, 5] was 1 (16.7%), the “TEAE: Infusion site extravasation, subjects” value [1, 5] was 1 (16.7%) and the “TEAE: Investigations, subjects” value [1, 5] was 2 (33.3%). For the same molecule, the “TEAE: Oedema, subjects” value [1, 5] was 1 (16.7%), the “TEAE: Oxygen saturation decreased, subjects” value [1, 5] was 1 (16.7%) and the “TEAE: Psychiatric disorders, subjects” value [1, 5] was 1 (16.7%). The “TEAE: Renal and urinary disorders, subjects” value [1, 5] was 1 (16.7%), the “TEAE: Sepsis, subjects” value [1, 5] was 1 (16.7%) and the “TEAE: Metabolism and nutrition disorders, subjects” value ([1]; human, in vivo) was 3 (50.0%). For the same molecule, the “TEAE: Number of Events” value ([1]; human, in vivo) was 18, the “patients with adverse events” value ([1]; human, in vivo) was 67% and the “subjects with treatment-emergent adverse effects assessed as related to treatment” value ([1]; human, in vivo) was 2 subjects. The safety and tolerability ([1]; in vivo) was “safe and well tolerated”, the “severe treatment-emergent adverse effects” value ([1]; in vivo) was “no severe” and the “Css Mean” value [6] was 402.026 µg/mL. For the same molecule, the “Css Median” value [6] was 197.991 µg/mL, the “λz Mean” value [6] was 0.469 h⁻¹ and the “λz Median” value [6] was 0.446 h⁻¹. For the same molecule, the “Css Mean” value [7] was 539.848 µg/mL, the “Css Median” value [7] was 513.902 µg/mL and the “λz Mean” value [7] was 0.408 h⁻¹. The “λz Median” value [7] was 0.411 h⁻¹, the “Css Mean” value [8] was 1347.284 µg/mL and the “Css Median” value [8] was 947.907 µg/mL. The “λz Mean” value [8] was 0.369 h⁻¹, the “λz Median” value [8] was 0.386 h⁻¹ and the “Css Mean” value [9] was 2827.144 µg/mL. The “Css Median” value [9] was 2665.409 µg/mL, the “λz Mean” value [9] was 0.360 h⁻¹ and the “λz Median” value [9] was 0.326 h⁻¹. The Css [10] was 0.402 ng/mL, the λz [10] was 0.5 h⁻¹ and the Css [11] was 0.5398 ng/mL. For the same molecule, the λz [11] was 0.4 h⁻¹, the Css [12] was 1.3473 ng/mL and the λz [12] was 0.4 h⁻¹. For the same molecule, the Css [13] was 2.8271 ng/mL, the λz [13] was 0.4 h⁻¹ and the Css (human, in vivo) was 5.74355e+09 ng/mL. The “dose proportionality of AUC and Cmax” value (human, in vivo) was “dose proportionality and a linear relationship”, the Tmax (clinical [2]; after the start of the maintenance infusion) was 0.68 h and the Tmax (clinical [2]; before the end of the loading dose) was ~0.08 h. The clearance (clinical [2]; clearance) was ~95 mL/min, the half-life (clinical [2]; half-life) was ~2 h and the half-life (clinical [2]; t1/2, Mean) was 1.96 h. The clearance (clinical [2]; weight adjusted CL) was ~10 mL/min/kg, the Vd (clinical [2]; weight adjusted Vd) was ~1.6 L/kg and the clearance (clinical [3]; CL, Geo. Mean of individual Bayesian estimates, 1 month-<6 months (n = 14)) was 116 mL/min. For the same molecule, the clearance (clinical [3]; CL, Geo. Mean of individual Bayesian estimates, 2 y-<6 y (n = 26)) was 265 mL/min, the clearance (clinical [3]; CL, Geo. Mean of individual Bayesian estimates, 6 months-<12 months (n = 16)) was 136 mL/min and the clearance (clinical [3]; CL, Geo. Mean of individual Bayesian estimates, 6 y-<17 y (n = 29)) was 408 mL/min. It also gave a clearance (clinical [3]; CL, Geo. Mean of individual Bayesian estimates, 12 months-<24 months (n = 13)) of 179 mL/min, a clearance (clinical [3]; CL, Geo. Mean of individual Bayesian estimates, 28 weeks GA-<1 month (n = 28)) of 38 mL/min and a clearance (clinical [3]; CL, elimination clearance (population mean), final population PK model, Examples 5, 3, 1 and 7) of 178 mL/min. For the same molecule, the Vd (clinical [3]; Volume of Distribution, Geo. Mean of individual Bayesian estimates, 1 month-<6 months (n = 14)) was 17.3 L, the Vd (clinical [3]; Volume of Distribution, Geo. Mean of individual Bayesian estimates, 2 y-<6 y (n = 26)) was 33.7 L and the Vd (clinical [3]; Volume of Distribution, Geo. Mean of individual Bayesian estimates, 6 months-<12 months (n = 16)) was 21.2 L. The Vd (clinical [3]; Volume of Distribution, Geo. Mean of individual Bayesian estimates, 6 y-<17 y (n = 29)) was 51.6 L, the Vd (clinical [3]; Volume of Distribution, Geo. Mean of individual Bayesian estimates, 12 months-<24 months (n = 13)) was 23.9 L and the Vd (clinical [3]; Volume of Distribution, Geo. Mean of individual Bayesian estimates, 28 weeks GA-<1 month (n = 28)) was 14.1 L. The clearance (clinical [3]; Weight-Adjusted CL, Geometric Mean (individual Bayesian estimates), Including Additional 11 Subjects, 1 month-<6 months (n = 14)) was 20.2 mL/min/kg, the clearance (clinical [3]; Weight-Adjusted CL, Geometric Mean (individual Bayesian estimates), Including Additional 11 Subjects, 2 y-<6 y (n = 26)) was 18.5 mL/min/kg and the clearance (clinical [3]; Weight-Adjusted CL, Geometric Mean (individual Bayesian estimates), Including Additional 11 Subjects, 6 months-<12 months (n = 16)) was 18.5 mL/min/kg. The clearance (clinical [3]; Weight-Adjusted CL, Geometric Mean (individual Bayesian estimates), Including Additional 11 Subjects, 6 y-<17 y (n = 29)) was 13.3 mL/min/kg, the clearance (clinical [3]; Weight-Adjusted CL, Geometric Mean (individual Bayesian estimates), Including Additional 11 Subjects, 12 months-<24 months (n = 13)) was 17.7 mL/min/kg and the clearance (clinical [3]; Weight-Adjusted CL, Geometric Mean (individual Bayesian estimates), Including Additional 11 Subjects, 28 weeks GA-<1 month (n = 28)) was 15.5 mL/min/kg. For the same molecule, the Vd (clinical [3]; Weight-Adjusted Vd, Geometric Mean (individual Bayesian estimates), Including Additional 11 Subjects, 1 month-<6 months (n = 14)) was 3.02 L/kg, the Vd (clinical [3]; Weight-Adjusted Vd, Geometric Mean (individual Bayesian estimates), Including Additional 11 Subjects, 2 y-<6 y (n = 26)) was 2.35 L/kg and the Vd (clinical [3]; Weight-Adjusted Vd, Geometric Mean (individual Bayesian estimates), Including Additional 11 Subjects, 6 months-<12 months (n = 16)) was 2.89 L/kg. The Vd (clinical [3]; Weight-Adjusted Vd, Geometric Mean (individual Bayesian estimates), Including Additional 11 Subjects, 6 y-<17 y (n = 29)) was 1.68 L/kg, the Vd (clinical [3]; Weight-Adjusted Vd, Geometric Mean (individual Bayesian estimates), Including Additional 11 Subjects, 12 months-<24 months (n = 13)) was 2.35 L/kg and the Vd (clinical [3]; Weight-Adjusted Vd, Geometric Mean (individual Bayesian estimates), Including Additional 11 Subjects, 28 weeks GA-<1 month (n = 28)) was 5.74 L/kg. For the same molecule, the CL [4, 14] was 7.26 L/h, the Q [4, 14] was 24.1 L/h and the Vc [4, 14] was 8.4 L. For the same molecule, the Vp [4, 14] was 10.2 L, the CL [4, 15] was 39.4 L/h and the volume of distribution [4, 15] was 152 L. For the same molecule, the “CL standardized to a 70-kg adult” value [4, 16] was 42.1 L/h, the “volume of distribution standardized to a 70-kg adult” value [4, 16] was 125.3 L and the volume of distribution ([4]; product label for Precedex) was 118 L. The CL ([4]; product label for Precedex, mean body weight 72 kg) was 39 L/h, the CL [4, 17] was 35.8 L/h and the volume of distribution [4, 17] was 112.7 L.
